The results in this text go back to ChEMBL document CHEMBL4330101, “Identification of BR101549 as a lead candidate of non-TZD PPARγ agonist for the treatment of type 2 diabetes: Proof-of-concept evaluation and SAR” (Bioorg Med Chem Lett, 2019).

The term EC50 denotes the concentration needed to bring the measured effect to its halfway point.

The target of data set [1] is T1, Peroxisome proliferator-activated receptor gamma (Homo sapiens) (UniProt P37231).
T1 sequence (whole entry): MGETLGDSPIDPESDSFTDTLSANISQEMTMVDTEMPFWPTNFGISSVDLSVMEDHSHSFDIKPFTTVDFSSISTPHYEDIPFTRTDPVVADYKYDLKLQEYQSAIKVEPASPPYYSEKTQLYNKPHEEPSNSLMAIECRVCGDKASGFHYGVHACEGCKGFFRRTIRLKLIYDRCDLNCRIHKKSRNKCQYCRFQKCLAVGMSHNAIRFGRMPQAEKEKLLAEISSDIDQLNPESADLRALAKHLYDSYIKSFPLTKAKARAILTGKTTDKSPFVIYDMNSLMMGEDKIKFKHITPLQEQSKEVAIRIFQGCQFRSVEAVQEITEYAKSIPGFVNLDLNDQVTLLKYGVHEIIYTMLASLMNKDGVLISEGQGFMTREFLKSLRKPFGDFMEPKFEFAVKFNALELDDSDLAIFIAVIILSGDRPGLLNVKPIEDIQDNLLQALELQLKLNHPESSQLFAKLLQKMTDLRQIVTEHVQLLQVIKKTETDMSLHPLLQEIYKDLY
In words: Agonist activity at human PPARgamma at 1 uM relative to telmisartan.

A short description of data set [2]: Stability in human liver microsomes assessed as parent compound remaining after 30 mins. It is filed as ADME, Microsome. The following applies: read-out: Stability. (In general: Liver microsomes are a subcellular fraction often used to study metabolism.)
The nature of data set [3]: Stability in mouse liver microsomes assessed as parent compound remaining after 30 mins. The following applies: read-out: Stability. In kind it is ADME, Microsome.
The target in data set [4] is T1, Peroxisome proliferator-activated receptor gamma (Homo sapiens). In words: Agonist activity at human PPARgamma at 1 uM relative to pioglitazone.
Data set [5] addresses T2, Peroxisome proliferator-activated receptor gamma (Homo sapiens, UniProt P37231).
T2 sequence (P37231 whole entry): T1 sequence (whole entry)
The data set can be described thus: Agonist activity at human PPARgamma.

The nature of data set [6]: Stability in dog liver microsomes assessed as parent compound remaining after 30 mins. In kind it is ADME, Canis lupus familiaris, Microsome. The following applies: read-out: Stability.
A short description of data set [7]: Stability in rat liver microsomes assessed as parent compound remaining after 30 mins. In kind it is ADME, Microsome. The conditions noted are these: read-out: Stability.

In the case of `CCCCc1nc(C(C)(C)C)c(CC(=O)OCC)c(=O)n1Cc1ccc(-c2ccccc2-c2noc(=O)[nH]2)cc1`, the fold change (FC) in data set [1] was less than 1. Moreover, the remaining at 0.5 h in data set [2] came to 8.2%; in data set [3], 14%.
Turning to `CC#CCOC(=O)Cc1c(C(C)C)nc(CCCC)n(Cc2ccc(-c3ccccc3-c3noc(=O)[nH]3)cc2)c1=O`, the max activation in data set [4] was found to be 103%. Also, the half-maximal effective concentration (EC50) in data set [5] amounted to 1060 nM. The remaining at 0.5 h is 13.7% in data set [2] and 16.4% in data set [3].
As to `CCCCc1nc(C(C)C)c(CC(=O)OC(CC)CC)c(=O)n1Cc1ccc(-c2ccccc2-c2noc(=O)[nH]2)cc1`, the remaining at 0.5 h in data set [2] stood at 7.7%; in data set [3], 14.6%.
`[2H]C([2H])(C(=O)OCC)c1c(C)nc(CCCC)n(Cc2ccc(-c3ccccc3-c3noc(=O)[nH]3)cc2)c1=O`: the remaining at 0.5 h in data set [6] worked out at 86.8%; in data set [7], 87.3%; in data set [2] it was 46.5%; in data set [3], 78.4%.
In the case of `CCCCc1nc(C2CC2)c(CC(=O)OC)c(=O)n1Cc1ccc(-c2ccccc2-c2noc(=O)[nH]2)cc1`, the max activation in data set [4] was determined as 83%. Further, it took 2360 nM to reach a half-maximal effect in data set [5] (EC50). Moreover, the remaining at 0.5 h in data set [2] was 24.4%; in data set [3] it was 16.4%.
For `CCCCc1nc(C)c(CC(=O)OCC2CCCCC2)c(=O)n1Cc1ccc(-c2ccccc2-c2noc(=O)[nH]2)cc1`, the max activation in data set [4] came out at 90%. This molecule had an EC50 in data set [5] of 1320 nM. Moreover, the results for the remaining at 0.5 h in data set [2] and in data set [3] were 11.5% and 8.9%, respectively.
On to `CCCCOC(=O)Cc1c(C(C)C)nc(CCCC)n(Cc2ccc(-c3ccccc3-c3noc(=O)[nH]3)cc2)c1=O`, for which the max activation in data set [4] was 73%. The molecule further yielded a concentration giving a half-maximal response (EC50) in data set [5] of 1000 nM. Also, the remaining at 0.5 h in data set [2] came out at 7.1%; in data set [3], 21.6%.
Regarding `CCCCc1nc(C)c(CC(=O)OC)c(=O)n1Cc1ccc(-c2ccccc2-c2noc(=O)[nH]2)cc1`, in data set [4], the max activation worked out at 74%. This molecule also registered an EC50 in data set [5] of 7360 nM. Also, the remaining at 0.5 h is 69.6% in data set [2] and 47.1% in data set [3].
Molecule `CCCCc1nc(C(C)C)c(CC(=O)OCC(F)(F)F)c(=O)n1Cc1ccc(-c2ccccc2-c2noc(=O)[nH]2)cc1` gave a max activation in data set [4] of 65%. Also, the EC50 in data set [5] amounted to 2780 nM.
Consider `CCCCc1nc(C)c(CC(=O)OC(C)C)c(=O)n1Cc1ccc(-c2ccccc2-c2noc(=O)[nH]2)cc1`, for which the max activation in data set [4] was found to be 114%. Besides, in data set [5], the response was half-maximal at 1660 nM (EC50). In addition, the values for the remaining at 0.5 h in data set [2] and in data set [3] were 17.5% and 4%, respectively.
With `CCCCc1nc(C)c(CC(=O)OC2CCCCC2)c(=O)n1Cc1ccc(-c2ccccc2-c2noc(=O)[nH]2)cc1`, in data set [4], the max activation was 98%. The molecule further registered an EC50 in data set [5] of 1000 nM. Also, the remaining at 0.5 h in data set [2] was 3.9%; in data set [3], 10.7%.
Taken in the same sequence, the figures for `CCCCc1nc(C)c(CC(=O)OC2CC2)c(=O)n1Cc1ccc(-c2ccccc2-c2noc(=O)[nH]2)cc1` were 62%, 3310 nM, 34.5% and 12.8%.
For `CCCCc1nc(C(C)C)c(CC(=O)OCCC)c(=O)n1Cc1ccc(-c2ccccc2-c2noc(=O)[nH]2)cc1` the same measures were 133%, 1500 nM, 7.2% and 12.6%.
Taken in the same sequence, the figures for `CCCCOC(=O)Cc1c(C)nc(CCCC)n(Cc2ccc(-c3ccccc3-c3noc(=O)[nH]3)cc2)c1=O` were 116%, 2250 nM, 2.8% and 10.2%.
Regarding `CCCCCOC(=O)Cc1c(C(C)C)nc(CCCC)n(Cc2ccc(-c3ccccc3-c3noc(=O)[nH]3)cc2)c1=O`, in data set [4], the max activation is 54%. Moreover, the 50% effective concentration (EC50) in data set [5] worked out at 1090 nM. The remaining at 0.5 h is 10.6% in data set [2] and 19.7% in data set [3].
For `CCCCc1nc(C(C)C)c(CC(=O)OC2CC2)c(=O)n1Cc1ccc(-c2ccccc2-c2noc(=O)[nH]2)cc1` the same measures were 89%, 1360 nM, 10.3% and 11.4%.
In the case of `CCCCc1nc(C)c(CC(=O)OCC2CC2)c(=O)n1Cc1ccc(-c2ccccc2-c2noc(=O)[nH]2)cc1`, in data set [4], the max activation is 101%. Further, the response in data set [5] was half-maximal at 1810 nM (EC50). In addition, the figures for the remaining at 0.5 h in data set [2] and in data set [3] were 20% and 13%, respectively.
As for `CCCCc1nc(C2CC2)c(CC(=O)OC(C)C)c(=O)n1Cc1ccc(-c2ccccc2-c2noc(=O)[nH]2)cc1`, in data set [4], the max activation came out at 87%. Also, the EC50 in data set [5] was determined as 2720 nM. Moreover, the remaining at 0.5 h in data set [2] turned out to be 9.9%; in data set [3], 14%.
Taken in the same sequence, the figures for `CC#CCOC(=O)Cc1c(C)nc(CCCC)n(Cc2ccc(-c3ccccc3-c3noc(=O)[nH]3)cc2)c1=O` were 99%, 2530 nM, 32% and 18.3%.
For the molecule `CCCCc1nc(C(C)C)c(C(C)C(=O)OCC)c(=O)n1Cc1ccc(-c2ccccc2-c2noc(=O)[nH]2)cc1` (stereo not drawn), the remaining at 0.5 h turned out to be 43.8% in data set [6], 19.2% in data set [7], 11% in data set [2] and 28% in data set [3]. The fold change (FC) in data set [1] came to 1.3.
`CCCCc1nc(C(C)C)c(CC(=O)OC2CCCCC2)c(=O)n1Cc1ccc(-c2ccccc2-c2noc(=O)[nH]2)cc1` registered a max activation in data set [4] of 88%. Besides, the EC50 in data set [5] stood at 730 nM. For the same molecule, the remaining at 0.5 h in data set [2] is 13.3%; in data set [3], 14.6%.
For `CCCCc1nc(C)c(CC(=O)OCC(C)C)c(=O)n1Cc1ccc(-c2ccccc2-c2noc(=O)[nH]2)cc1` the same measures were 114%, 1530 nM, 2.4% and 7.7%.
`CCCCc1nc(C(C)C)c(CC(=O)OC)c(=O)n1Cc1ccc(-c2ccccc2-c2noc(=O)[nH]2)cc1` returned a max activation in data set [4] of 96%. The molecule further had an EC50 in data set [5] of 2620 nM. The remaining at 0.5 h in data set [2] was 10.5%; in data set [3], 9.4%.
In data set [4], `CCCCc1nc(C(C)C)c(CC(=O)OCC(C)C)c(=O)n1Cc1ccc(-c2ccccc2-c2noc(=O)[nH]2)cc1` returned a max activation of 128%. In addition, the response in data set [5] was half-maximal at 1230 nM (EC50). Besides, the remaining at 0.5 h was found to be 8.8% in data set [2] and 13.7% in data set [3].
Take `CCCCc1nc(C)c(CC(=O)OCC)c(=O)n1Cc1ccc(-c2ccccc2-c2noc(=O)[nH]2)cc1`: the remaining at 0.5 h in data set [6] was found to be 50.9%; in data set [7] it was 14.3%; in data set [2] it was 46.6%; in data set [3], 12.9%. For the same molecule, the values for the fold change (FC) in data set [1] and in data set [1] (tested as the 2H-labelled form) were 0.93 and 0.82, respectively.
